Results: paper PMC9057277 (RSC Advances, 2020)
pIC50: −log10 of the molar value. Read-outs that look alike come from different tables or passages of the source.

Assays:
[1] = log D7.4 by HPLC method; type: physicochemical; conditions: HPLC retention on ODP-50 4B column (Shodex Asahipak); pH 7.4, HPLC-based method
[2] = Ex vivo biodistribution in healthy rats; conditions: for Biodistribution BAT: brown adipose tissue; for Biodistribution BAT / Biodistribution adrenals / Biodistribution blood / Biodistribution brain / Biodistribution femur / Biodistribution harderian gland / Biodistribution heart / Biodistribution intestine / Biodistribution kidneys / Biodistribution liver / Biodistribution lung / Biodistribution muscle / Biodistribution pancreas / Biodistribution skin & hair / Biodistribution spleen / Biodistribution stomach / Biodistribution testes / Biodistribution thymus / Biodistribution thyroid gland / Biodistribution urine (calc.) / Biodistribution femur (femur uptake, 18F-defluorination) / Biodistribution WAT: i.v., n = 8, mean ± SD; for Biodistribution WAT: white adipose tissue
[3] = Metabolic stability in vivo: blood clearance, blood components, radiometabolites; set-up: species or system male Wistar rats; conditions: for half-life: male, Wistar, rat, arterial blood, iv, 70 MBq, i.v., arterial blood samples; for half-life / Intact compound in blood plasma: rats; for Radioactivity distribution in blood components: erythrocytes / Radioactivity distribution in blood components: plasma / Radioactivity distribution in blood components: plasma supernatant / Radioactivity distribution in blood components: plasma pellet (bound to plasma proteins) / Radioactivity distribution in blood components: plasma pellet: rat blood; for Radioactivity distribution in blood components: plasma pellet (bound to plasma proteins): + TCA precipitation; for Intact compound in blood plasma: radio-HPLC
[4] = target: T1, recombinant human COX-2 (Homo sapiens, UniProt P35354); test: COX Fluorescent Inhibitor Screening Assay Kit, COX-2; type: biochemical; conditions: for Selectivity index: IC50 (COX-1)/IC50 (COX-2)
T1 construct: purchased Cayman Chemical, Ann Arbor, MI 700100
T1 sequence (P35354 18-604): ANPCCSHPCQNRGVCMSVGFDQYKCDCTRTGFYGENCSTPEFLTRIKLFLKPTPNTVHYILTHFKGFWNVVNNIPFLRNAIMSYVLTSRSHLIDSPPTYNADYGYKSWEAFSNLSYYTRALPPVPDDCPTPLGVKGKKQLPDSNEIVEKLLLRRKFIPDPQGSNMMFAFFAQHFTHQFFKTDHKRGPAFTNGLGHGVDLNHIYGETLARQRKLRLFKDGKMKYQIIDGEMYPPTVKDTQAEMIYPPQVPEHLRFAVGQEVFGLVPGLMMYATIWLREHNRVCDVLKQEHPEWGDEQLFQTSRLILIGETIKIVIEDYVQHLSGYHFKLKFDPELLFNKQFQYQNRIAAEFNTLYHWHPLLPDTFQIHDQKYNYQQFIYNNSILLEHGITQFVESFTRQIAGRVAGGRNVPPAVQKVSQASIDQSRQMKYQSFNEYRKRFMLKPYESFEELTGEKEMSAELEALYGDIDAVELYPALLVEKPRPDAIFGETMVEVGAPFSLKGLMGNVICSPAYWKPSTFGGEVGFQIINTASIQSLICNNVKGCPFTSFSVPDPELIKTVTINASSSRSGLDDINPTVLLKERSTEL

[5] = target: T2, purified ovine COX-1 (Ovis aries, UniProt P05979); test: COX Fluorescent Inhibitor Screening Assay Kit, COX-1
T2 sequence (P05979 25-600): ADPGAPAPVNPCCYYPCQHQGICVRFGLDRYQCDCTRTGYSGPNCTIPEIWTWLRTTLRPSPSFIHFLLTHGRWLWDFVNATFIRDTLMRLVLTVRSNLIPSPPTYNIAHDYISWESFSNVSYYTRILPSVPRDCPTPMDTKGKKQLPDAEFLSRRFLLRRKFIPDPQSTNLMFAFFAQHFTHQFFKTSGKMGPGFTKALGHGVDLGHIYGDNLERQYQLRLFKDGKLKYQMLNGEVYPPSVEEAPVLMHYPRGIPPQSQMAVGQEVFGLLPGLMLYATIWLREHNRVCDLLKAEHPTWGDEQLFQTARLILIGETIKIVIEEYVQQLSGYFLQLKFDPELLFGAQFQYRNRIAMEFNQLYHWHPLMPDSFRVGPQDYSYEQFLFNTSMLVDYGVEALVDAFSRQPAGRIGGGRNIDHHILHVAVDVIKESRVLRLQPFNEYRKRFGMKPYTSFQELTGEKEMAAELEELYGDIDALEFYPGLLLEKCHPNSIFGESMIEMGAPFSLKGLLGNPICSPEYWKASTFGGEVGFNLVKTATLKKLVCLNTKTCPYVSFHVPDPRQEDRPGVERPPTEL
Procedure: 7.4.1 COX inhibition assay
The COX inhibition potency against ovine COX-1 and human COX-2 was determined using the
fluorescence-based COX assay ’COX Fluorescent Inhibitor Screening Assay Kit‘ (catalog number
reported by us.7 In brief, as a measure of COX mediated conversion of arachidonic acid to PG H2 in the
presence of different inhibitor concentrations this assay utilizes the peroxidase component of COX and
analyzes the formation of fluorescent resorufin. All compounds were assayed in a concentration range
of 10 nM to 100 μM, and every inhibitor concentration was assayed in duplicate.
as internal control. IC50 values were estimated using a nonlinear logistic regression ﬁtting procedure
(sigmoidal dose−response model) with Prism Software.

[6] = Stability towards liver microsomes of mice
[7] = read-out: t1/2 distribution (blood clearance of intact compound)
[8] = read-out: t1/2 elimination (blood clearance of intact compound)

Cc1ccc(-c2cc(C[18F])nn2-c2ccc(S(C)(=O)=O)cc2)cc1 [[^18F]5a, 3-([^18F]fluoromethyl)-1-[4-(methylsulfonyl)phenyl]-5-(p-tolyl)-1H-pyrazole]
chromatographic logD [1]: 2.72
liver-to-bladder ratio (hepatobiliary vs renal excretion) ([2]; 60 min p.i.): 2.3
Biodistribution BAT ([2]; 5 min p.i.): 2.21 ± 0.91 SUV
Biodistribution BAT ([2]; 60 min p.i.): 1.13 ± 0.29 SUV
Biodistribution adrenals ([2]; 5 min p.i.): 2.25 ± 1.19 SUV
Biodistribution blood ([2]; 5 min p.i.): 0.46 ± 0.15 SUV
Biodistribution brain ([2]; 5 min p.i.): 0.46 ± 0.14 SUV
Biodistribution femur ([2]; 5 min p.i.): 0.96 ± 0.53 SUV
Biodistribution harderian gland ([2]; 5 min p.i.): 1.5 ± 0.6 SUV
Biodistribution heart ([2]; 5 min p.i.): 0.79 ± 0.23 SUV
Biodistribution intestine ([2]; 5 min p.i.): 6.78 ± 2.69 %ID
Biodistribution kidneys ([2]; 5 min p.i.): 1.53 ± 0.49 SUV
Biodistribution liver ([2]; 5 min p.i.): 3.84 ± 1.52 SUV
Biodistribution lung ([2]; 5 min p.i.): 0.89 ± 0.38 SUV
Biodistribution muscle ([2]; 5 min p.i.): 0.35 ± 0.18 SUV
Biodistribution pancreas ([2]; 5 min p.i.): 0.97 ± 0.27 SUV
Biodistribution skin & hair ([2]; 5 min p.i.): 0.97 ± 0.31 SUV
Biodistribution spleen ([2]; 5 min p.i.): 0.53 ± 0.24 SUV
Biodistribution stomach ([2]; 5 min p.i.): 0.87 ± 0.65 %ID
Biodistribution testes ([2]; 5 min p.i.): 0.34 ± 0.16 SUV
Biodistribution thymus ([2]; 5 min p.i.): 0.76 ± 0.18 SUV
Biodistribution thyroid gland ([2]; 5 min p.i.): 0.71 ± 0.4 SUV
Biodistribution urine (calc.) ([2]; 5 min p.i.): 3.32 ± 4.35 %ID
Biodistribution adrenals ([2]; 60 min p.i.): 1.85 ± 1.91 SUV
Biodistribution blood ([2]; 60 min p.i.): 0.12 ± 0.04 SUV
Biodistribution brain ([2]; 60 min p.i.): 0.12 ± 0.04 SUV
Biodistribution femur (femur uptake, 18F-defluorination) ([2]; 60 min p.i.): 4.1 ± 0.6 SUV
Biodistribution harderian gland ([2]; 60 min p.i.): 0.64 ± 0.28 SUV
Biodistribution heart ([2]; 60 min p.i.): 0.15 ± 0.02 SUV
Biodistribution intestine ([2]; 60 min p.i.): 19.43 ± 2.27 %ID
Biodistribution kidneys ([2]; 60 min p.i.): 0.36 ± 0.19 SUV
Biodistribution liver ([2]; 60 min p.i.): 0.78 ± 0.2 SUV
Biodistribution lung ([2]; 60 min p.i.): 0.19 ± 0.06 SUV
Biodistribution muscle ([2]; 60 min p.i.): 0.21 ± 0.1 SUV
Biodistribution pancreas ([2]; 60 min p.i.): 0.44 ± 0.28 SUV
Biodistribution skin & hair ([2]; 60 min p.i.): 0.39 ± 0.2 SUV
Biodistribution spleen ([2]; 60 min p.i.): 0.18 ± 0.07 SUV
Biodistribution stomach ([2]; 60 min p.i.): 1.06 ± 0.42 %ID
Biodistribution testes ([2]; 60 min p.i.): 0.27 ± 0.17 SUV
Biodistribution thymus ([2]; 60 min p.i.): 0.28 ± 0.11 SUV
Biodistribution thyroid gland ([2]; 60 min p.i.): 0.67 ± 0.37 SUV
Biodistribution urine (calc.) ([2]; 60 min p.i.): 8.55 ± 2.53 %ID
Biodistribution WAT ([2]; 5 min p.i.): 1.45 ± 0.53 SUV
Biodistribution WAT ([2]; 60 min p.i.): 1.67 ± 0.23 SUV
half-life [3, 7]: 0.6 min
half-life [3, 8]: 19.5 min
Radioactivity distribution in blood components: erythrocytes ([3]; 60 min p.i., + TCA): 19%
Radioactivity distribution in blood components: plasma ([3]; 60 min p.i., + TCA): 71%
Radioactivity distribution in blood components: plasma supernatant ([3]; 60 min p.i., + TCA): 42%
Radioactivity distribution in blood components: plasma pellet (bound to plasma proteins) ([3]; 60 min p.i.): 25%
Radioactivity distribution in blood components: erythrocytes ([3]; 60 min p.i., - TCA): 17%
Radioactivity distribution in blood components: plasma ([3]; 60 min p.i., - TCA): 67%
Radioactivity distribution in blood components: plasma pellet ([3]; 60 min p.i., - TCA): 1%
Radioactivity distribution in blood components: plasma supernatant ([3]; 60 min p.i., - TCA): 80%
Intact compound in blood plasma ([3]; 20 min p.i.): 46%
Intact compound in blood plasma ([3]; 60 min p.i.): 28%

CS(=O)(=O)c1ccc(-n2nc(CCF)cc2-c2ccccc2)cc1 [5c]
pIC50 [4]: 5.30
Selectivity index [4]: >20
pIC50 [5]: < 4.00

Cc1ccc(-c2cc(CCF)nn2-c2ccc(S(C)(=O)=O)cc2)cc1 [5b]
pIC50 [4]: 5.60
Selectivity index [4]: 15
pIC50 [5]: 4.41

[2H]C([2H])([18F])c1cc(-c2ccc(C)cc2)n(-c2ccc(S(C)(=O)=O)cc2)n1 [[D2,^18F]5a]
chromatographic logD [1]: 2.72
Biodistribution BAT ([2]; 5 min p.i.): 3.31 ± 0.56 SUV
Biodistribution BAT ([2]; 60 min p.i.): 1.21 ± 0.11 SUV
Biodistribution adrenals ([2]; 5 min p.i.): 3.28 ± 0.52 SUV
Biodistribution blood ([2]; 5 min p.i.): 0.42 ± 0.04 SUV
Biodistribution brain ([2]; 5 min p.i.): 0.54 ± 0.12 SUV
Biodistribution femur ([2]; 5 min p.i.): 0.84 ± 0.09 SUV
Biodistribution harderian gland ([2]; 5 min p.i.): 1.94 ± 0.14 SUV
Biodistribution heart ([2]; 5 min p.i.): 0.76 ± 0.12 SUV
Biodistribution intestine ([2]; 5 min p.i.): 10.14 ± 1.96 %ID
Biodistribution kidneys ([2]; 5 min p.i.): 1.58 ± 0.24 SUV
Biodistribution liver ([2]; 5 min p.i.): 4.16 ± 0.29 SUV
Biodistribution lung ([2]; 5 min p.i.): 0.92 ± 0.14 SUV
Biodistribution muscle ([2]; 5 min p.i.): 0.52 ± 0.08 SUV
Biodistribution pancreas ([2]; 5 min p.i.): 1.37 ± 0.13 SUV
Biodistribution skin & hair ([2]; 5 min p.i.): 0.9 ± 0.15 SUV
Biodistribution spleen ([2]; 5 min p.i.): 0.56 ± 0.1 SUV
Biodistribution stomach ([2]; 5 min p.i.): 1.14 ± 0.57 %ID
Biodistribution testes ([2]; 5 min p.i.): 0.48 ± 0.04 SUV
Biodistribution thymus ([2]; 5 min p.i.): 0.95 ± 0.08 SUV
Biodistribution thyroid gland ([2]; 5 min p.i.): 0.95 ± 0.18 SUV
Biodistribution urine (calc.) ([2]; 5 min p.i.): 0.15 ± 1.91 %ID
Biodistribution adrenals ([2]; 60 min p.i.): 0.91 ± 0.15 SUV
Biodistribution blood ([2]; 60 min p.i.): 0.11 ± 0.01 SUV
Biodistribution brain ([2]; 60 min p.i.): 0.11 ± 0.02 SUV
Biodistribution femur (femur uptake, 18F-defluorination) ([2]; 60 min p.i.): 2.6 ± 0.3 SUV
Biodistribution harderian gland ([2]; 60 min p.i.): 0.5 ± 0.08 SUV
Biodistribution heart ([2]; 60 min p.i.): 0.16 ± 0.03 SUV
Biodistribution intestine ([2]; 60 min p.i.): 33.02 ± 3.53 %ID
Biodistribution kidneys ([2]; 60 min p.i.): 0.47 ± 0.06 SUV
Biodistribution liver ([2]; 60 min p.i.): 0.92 ± 0.19 SUV
Biodistribution lung ([2]; 60 min p.i.): 0.21 ± 0.03 SUV
Biodistribution muscle ([2]; 60 min p.i.): 0.19 ± 0.07 SUV
Biodistribution pancreas ([2]; 60 min p.i.): 0.62 ± 0.37 SUV
Biodistribution skin & hair ([2]; 60 min p.i.): 0.25 ± 0.04 SUV
Biodistribution spleen ([2]; 60 min p.i.): 0.22 ± 0.12 SUV
Biodistribution stomach ([2]; 60 min p.i.): 1.19 ± 0.49 %ID
Biodistribution testes ([2]; 60 min p.i.): 0.21 ± 0.04 SUV
Biodistribution thymus ([2]; 60 min p.i.): 0.21 ± 0.04 SUV
Biodistribution thyroid gland ([2]; 60 min p.i.): 0.45 ± 0.06 SUV
Biodistribution urine (calc.) ([2]; 60 min p.i.): 9.12 ± 3.68 %ID
Biodistribution WAT ([2]; 5 min p.i.): 2.79 ± 1.06 SUV
Biodistribution WAT ([2]; 60 min p.i.): 2.4 ± 0.28 SUV
half-life [3, 7]: 1.3 min
half-life [3, 8]: 17 min
Radioactivity distribution in blood components: erythrocytes ([3]; 60 min p.i., + TCA): 18%
Radioactivity distribution in blood components: plasma ([3]; 60 min p.i., + TCA): 73%
Radioactivity distribution in blood components: plasma supernatant ([3]; 60 min p.i., + TCA): 39%
Radioactivity distribution in blood components: plasma pellet (bound to plasma proteins) ([3]; 60 min p.i.): 29%
Radioactivity distribution in blood components: erythrocytes ([3]; 60 min p.i., - TCA): 16%
Radioactivity distribution in blood components: plasma ([3]; 60 min p.i., - TCA): 70%
Radioactivity distribution in blood components: plasma pellet ([3]; 60 min p.i., - TCA): 1%
Radioactivity distribution in blood components: plasma supernatant ([3]; 60 min p.i., - TCA): 73%
Intact compound in blood plasma ([3]; 20 min p.i.): 54%
Intact compound in blood plasma ([3]; 60 min p.i.): 52%

C[C@]12CC[C@H]3[C@@H](CCC4=CC(=O)CC[C@@]43C)[C@@H]1CC[C@@H]2O [Testosteron, reference compound]
conversion by mouse liver microsomes (positive control for oxidation) [6]: Complete conversion

[2H]C([2H])(F)c1cc(-c2ccc(C)cc2)n(-c2ccc(S(C)(=O)=O)cc2)n1 [[D2]5a]
pIC50 [4]: 6.01
Selectivity index [4]: >103
pIC50 [5]: < 4.00

Cc1ccc(-c2cc(CCF)n(-c3ccc(S(C)(=O)=O)cc3)n2)cc1 [5d]
pIC50 [4]: < 4.00
pIC50 [5]: < 4.00
